Consider 16 compounds from US9732061B2, “Cinnoline derivatives useful as CB-1 receptor inverse agonists” (Janssen Pharmaceutica NV, priority 2015, dated 2017).

In assay [1] the target is Human CB1R (Cannabanoid receptor 1) (Homo sapiens (Human), UniProt P21554). As to the kind of experiment: CB-1 in vitro cAMP (HTRF) assay. It is filed as cell-based. The following applies: HEK-293 cells stably transfected with human CB1R, 250 nM Forskolin, mean where tested more than once. An excerpt:
(§1) CB1 and CB2 receptors are Gi-coupled GPCR. Activation of CB1 and CB2 receptors results in a decrease in cAMP production. An inverse agonist of the CB1 or CB2 receptor results in the opposite effect, an increase of cAMP production. The principle of this assay is based on HTRF® technology (Homogeneous Time-Resolved Fluorescence). The method is a competitive immunoassay between native cAMP produced by cells and the cAMP labeled with the fluorophore d2. The tracer binding is quantified by a Mab anti-cAMP labeled with Eu3+TBP-NHS Cryptate (supplied as part of the assay kit). The specific signal (i.e. energy transfer) is inversely proportional to the concentration of cAMP in the standard or sample.
(§2) Biological Example 1: CB-1 and CB-2 In Vitro Assay
(§3) Human CB1R (Cannabanoid receptor 1) was stably transfected in HEK-293 cells (DiscoveRx, cat: 93-0200C1). Human CB2R (Cannabanoid receptor 2) was stably transfected in HEK-293 cells (DiscoveRx, cat: 93-0201C1). Cell cultures were maintained in media: DMEM (Invitrogen Cat#12430-054) supplemented with 10% HI FBS (Invitrogen Cat#16140-071), 1% L-glutamine (Invitrogen Cat#25030-081), 0.2 mg/ml Hygromycin B (Invitrogen Cat#10687-010), 600 μg/mL G418 (Invitrogen Cat#10131-035), and 1×Penn/Strep (Invitrogen 15140-122). After cell expansion, aliquots were cryo-stored in media containing 5% DMSO (Pierce Cat#20684).
(§4) One day prior to experiments media was warmed to 37° C. and the cryo-stored cells were thawed in a 37° C. water bath. The cells were then added to media (10× volume) and the mixture was centrifugated at 1000 RPM for 5 min. The supernate was removed and the cells were re-suspended in media. A sample of the cell suspension was evaluated on a Cedex XS automated cell counter (Innovatis Systems) to determine viable cells/ml. Additional media was added to the cells to achieve a final cell density of 4E5 cells/mL. The cells were then plated into 384 well PDL white solid bottom plates (Greiner, Cat#781945) at 20 μL per well using a Multidrop (Thermo Scientific). Cells were removed from Row P (location of cAMP standards). Two columns of cells were plated into a clear bottom 384 well PDL coated plate (Greiner, Cat#781944) to view confluence the day of the assay. The cell plates were lidded and stored for 15 minutes in a hood, then transferred to an incubator (37° C., 5% CO2, 95% humidity) overnight.
(§5) DMSO was added to all wells of 384 well V bottom polystyrene plate (Greiner, Cat#781280) except to columns 1 and 13, rows O and P and wells M13-M23 and N13-N23. Test compounds (60 μL, 10 mM) were added to Column 1 and 13 (A1 through N1 and A13 through L13). Test compounds were serially diluted 1/3 by transferring and mixing 20 μl sample with 40 μL DMSO.
(§6) DMSO (40 μL) was added to wells of 384 well V bottom polystyrene plate: O2 through O11, M14 through M23, N14 through N23, and O14 through O23. AM630 (also known as [6-iodo-2-methyl-1-[2-(4-morpholinyl)ethyl]-1H-indol-3-yl](4-methoxyphenyl)-methanone, Cayman Chemical, Cat#10006974) (60 μL, 10 mM) was added to O1; and 1-(2,4-dichlorophenyl)-7-[(4-fluorophenyl)methylene]-4,5,6,7-tetrahydro-N-1-piperidinyl-1H-indazole-3-carboxamide (60 μL, 10 mM) was added to N13. The control was serially diluted 1/3 by transferring and mixing 20 μl sample with 40 μL DMSO. This process resulted 11 doses per control, 10 mM to […].
(§7) Cells plated the day prior to the assay in clear bottom plates were viewed on an inverse microscope to ensure confluency in the range of 60-75%. […]
On the technique in general: TR-FRET usually uses a lanthanide donor and a delayed reading to cut background.

The target in assay [2] is Human CB2R (Cannabanoid receptor 2) (Homo sapiens (Human), UniProt P34972). As to the kind of experiment: CB-2 in vitro cAMP (HTRF) assay. It is filed as cell-based. Conditions: HEK-293 cells stably transfected with human CB2R, 250 nM Forskolin, mean where tested more than once.
Source text: as §1, §2, §3, §4, §5, §6, §7

Bounds are passed on as bounds.

Human CB1R (Cannabanoid receptor 1), sequence (P21554 whole entry): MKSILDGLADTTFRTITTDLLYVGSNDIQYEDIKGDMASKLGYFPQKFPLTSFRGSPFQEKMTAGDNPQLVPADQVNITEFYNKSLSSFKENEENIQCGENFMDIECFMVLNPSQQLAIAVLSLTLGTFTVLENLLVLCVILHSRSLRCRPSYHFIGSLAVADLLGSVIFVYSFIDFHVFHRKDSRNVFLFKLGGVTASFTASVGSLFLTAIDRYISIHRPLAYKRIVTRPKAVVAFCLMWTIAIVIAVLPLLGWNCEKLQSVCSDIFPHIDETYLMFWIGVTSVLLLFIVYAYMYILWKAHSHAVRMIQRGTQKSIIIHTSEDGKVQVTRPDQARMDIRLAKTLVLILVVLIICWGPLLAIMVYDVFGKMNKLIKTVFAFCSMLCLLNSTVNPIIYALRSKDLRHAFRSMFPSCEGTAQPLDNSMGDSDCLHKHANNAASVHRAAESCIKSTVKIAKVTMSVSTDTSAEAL
Human CB2R (Cannabanoid receptor 2), sequence (P34972 whole entry): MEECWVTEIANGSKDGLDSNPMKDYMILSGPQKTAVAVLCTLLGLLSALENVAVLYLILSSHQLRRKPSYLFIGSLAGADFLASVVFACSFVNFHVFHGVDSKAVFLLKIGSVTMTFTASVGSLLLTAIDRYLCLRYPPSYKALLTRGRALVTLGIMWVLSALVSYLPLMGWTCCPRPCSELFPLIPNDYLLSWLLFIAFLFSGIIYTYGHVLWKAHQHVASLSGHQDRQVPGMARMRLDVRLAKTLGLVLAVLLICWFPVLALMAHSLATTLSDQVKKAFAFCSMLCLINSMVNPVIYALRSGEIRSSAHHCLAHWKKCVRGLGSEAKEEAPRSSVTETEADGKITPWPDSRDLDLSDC

What is called EC50 is the concentration at which the effect is half-maximal. Higher therefore signals weaker potency. Take `O=C(O)c1ccccc1S(=O)(=O)N1CCC(Nc2cnnc3ccc(C(c4ccc(Cl)cc4)c4ccc(Cl)cc4)cc23)CC1` [Compound 19, 2-(4-(6-(bis(4-chlorophenyl)methyl)cinnolin-4-ylamino)piperidin-1-ylsulfonyl)benzoic acid]: the EC50 was 5.94 µM in assay [1] and more than 10 µM in assay [2].
Take `O=C(O)c1ccc(CN2CCC(Nc3cnnc4ccc(C(c5ccc(Cl)cc5)c5ccc(Cl)cc5)cc34)CC2)cc1` [Compound 13, 4-((4-(6-(bis(4-chlorophenyl)methyl)cinnolin-4-ylamino)piperidin-1-yl)methyl)benzoic acid]: the EC50 was 1.44 µM in assay [1] and more than 10 µM in assay [2].
`O=S(=O)(N1CCC(Nc2cnnc3ccc(C(c4ccc(Cl)cc4)c4nccs4)cc23)CC1)C(F)(F)F` (centres unmarked) [Compound 36, 6-((4-chlorophenyl)(thiazol-2-yl)methyl)-N-(1-(trifluoromethylsulfonyl)piperidin-4-yl)cinnolin-4-amine]: the EC50 in assay [1] turned out to be 0.028 µM; in assay [2], 0.665 µM.
On the same counts, the results for `O=S(=O)(N1CCC(Nc2cnnc3ccc(C(c4ccc(Cl)cc4)c4ccc(Cl)cc4)cc23)C1)C(F)(F)F` (centres unmarked) [Compound 26, 6-(bis(4-chlorophenyl)methyl)-N-(1-(trifluoromethylsulfonyl)pyrrolidin-3-yl)cinnolin-4-amine] are 0.095 µM and 1.93 µM.
On the same counts, the results for `OC(c1ccc(Cl)cc1)(c1ccc(Cl)cc1)c1ccc2nncc(NCc3ccc(C(F)(F)F)cc3)c2c1` [Compound 7, bis(4-chlorophenyl)(4-((4-(trifluoromethyl)benzyl)amino)cinnolin-6-yl)methanol] are 0.219 µM and more than 10 µM.
On the same counts, the results for `FC(F)(F)c1cccc(CNc2cnnc3ccc(C(c4ccc(Cl)cc4)c4ccc(Cl)cc4)cc23)c1` [Compound 8, 6-(bis(4-chlorophenyl)methyl)-N-(3-(trifluoromethyl)benzyl)cinnolin-4-amine] are 0.012 µM and more than 10 µM.
On to `FC(F)(F)c1ccc(CNc2cnnc3ccc(C(c4ccc(Cl)cc4)c4ccc(Cl)cc4)cc23)cc1` [Compound 9, 6-(bis(4-chlorophenyl)methyl)-N-(4-(trifluoromethyl)benzyl)cinnolin-4-amine], for which the EC50 is 0.04 µM in assay [1] and more than 10 µM in assay [2].
For `O=S(=O)(N1CCC(Nc2cnnc3ccc(C(O)(c4ccc(Cl)cc4)c4ccc(Cl)cc4)cc23)CC1)C(F)(F)F` [Compound 1, bis(4-chlorophenyl)(4-((1-((trifluoromethyl)sulfonyl)piperidin-4-yl)amino)cinnolin-6-yl)methanol], the EC50 in assay [1] was 0.455 µM; in assay [2], more than 10 µM.
`O=S(=O)(c1ccccc1)N1CCC(Nc2cnnc3ccc(C(c4ccc(Cl)cc4)c4ccc(Cl)cc4)cc23)C1` (centres unmarked) [Compound 27, 6-(bis(4-chlorophenyl)methyl)-N-(1-(phenylsulfonyl)pyrrolidin-3-yl)cinnolin-4-amine]: the results for the EC50 in assay [1] and in assay [2] were 0.272 µM and 0.849 µM, respectively.
Taken in the same sequence, the figures for `O=C(O)c1cccc(CN2CCC(Nc3cnnc4ccc(C(c5ccc(Cl)cc5)c5ccc(Cl)cc5)cc34)CC2)c1` [Compound 12, 3-[[4-([6-[bis(4-chlorophenyl)methyl]cinnolin-4-yl]amino)piperidin-1-yl]methyl]benzoic acid] were 0.302 µM and 6.5 µM.
On the same counts, the results for `O=C(O)c1ccc(S(=O)(=O)N2CCC(Nc3cnnc4ccc(C(c5ccc(Cl)cc5)c5ccc(Cl)cc5)cc34)CC2)s1` [Compound 16, 5-(4-(6-(bis(4-chlorophenyl)methyl)cinnolin-4-ylamino)piperidin-1-ylsulfonyl)thiophene-2-carboxylic acid] are 0.262 µM and 2.15 µM.
On the same counts, the results for `Clc1ccc(C(c2ccc(Cl)cc2)c2ccc3nncc(NCCc4ccccc4)c3c2)cc1` [Compound 25, 6-(bis(4-chlorophenyl)methyl)-N-phenethylcinnolin-4-amine] are 0.035 µM and 2.46 µM.
As for `Clc1ccc(C(c2ccc(Cl)cc2)c2ccc3nncc(NC4CCN(CCc5ccccc5)CC4)c3c2)cc1` [Compound 30, 6-(bis(4-chlorophenyl)methyl)-N-(1-phenethylpiperidin-4-yl)cinnolin-4-amine], the EC50 in assay [1] is 0.643 µM; in assay [2], more than 10 µM.
Taken in the same sequence, the figures for `O=S(=O)(N1CCC(Nc2cnnc3ccc(C(c4ccc(F)cc4)c4ccc(Cl)cc4)cc23)CC1)C(F)(F)F` (centres unmarked) [Compound 34, 6-((4-chlorophenyl)(4-fluorophenyl)methyl)-N-(1-(trifluoromethylsulfonyl)piperidin-4-yl)cinnolin-4-amine] were 0.03 µM and more than 10 µM.
Taken in the same sequence, the figures for `O=C(O)c1cccc(S(=O)(=O)N2CCC(Nc3cnnc4ccc(C(c5ccc(Cl)cc5)c5ccc(Cl)cc5)cc34)CC2)c1` [Compound 11, 3-(4-(6-(bis(4-chlorophenyl)methyl)cinnolin-4-ylamino)piperidin-1-ylsulfonyl)benzoic acid] were 0.181 µM and 5.25 µM.
Taken in the same sequence, the figures for `COc1ccc(CNc2cnnc3ccc(C(c4ccc(Cl)cc4)c4ccc(Cl)cc4)cc23)cc1` [Compound 20, 6-(bis(4-chlorophenyl)methyl)-N-(4-methoxybenzyl)cinnolin-4-amine] were 0.196 µM and 3.58 µM.
